Measurements as given in patent publication US20110166112A1, “METHOD FOR STIMULATING PLATELET PRODUCTION” (Eisai, Inc., priority 2009, published 2011).

System: subjects with chronic idiopathic thrombocytopenic purpura (ITP)
Experiment: Phase 2 28-day study of E5501 tablets: safety and tolerability (TEAEs, discontinuations)
Type: in vivo, human
Conditions: for Discontinued study, primary reason Adverse Event or SAE / Discontinued study, primary reason Platelet Count Increase to ≧500 K/mm^3: randomized/safety/FAS; for Blood and lymphatic system disorders / Cardiac disorders / Eye disorders / Gastritis haemorrhagic / Gastrointestinal disorders / Infections and infestations / Myocardial infarction / Nervous system disorders / Pneumonia / Retinal artery occlusion / Thrombocytopenia / Transient ischaemic attack: serious TEAE
Procedure: This was a phase 2, multi-center, double-blind, randomized, placebo-controlled, dose-ranging, parallel group study of E5501 tablets, used in the treatment of subjects with chronic idiopathic thrombocytopenic purpura (ITP) refractory to or relapsed after at least one prior ITP therapy. Subjects who met all entry criteria were randomly assigned in a 3:3:3:3:1 ratio to one of the following five treatment groups dosed daily for 28 days: 1) E5501 2.5 mg; 2) E5501 5 mg; 3) E5501 10 mg; 4) E5501 20 mg; or 5) placebo (PBO). Each E5501 dosing group consisted of 15 subjects while the PBO group consisted of 5 subjects. All study subjects were evaluated weekly (days 7, 14, 21 and 28) for safety and efficacy while receiving study treatment, with a final assessment for safety and effectiveness performed 4 weeks after the last study dose (day 56) unless the subject entered the follow-on study. Platelet counts were also measured on day 3 and day 5.
The safety and tolerability parameters included adverse events, clinical laboratory parameters, study drug exposure, vital electrocardiograms, concomitant medications, serum pregnancy tests for women of childbearing potential and physical examinations including height, weight, general appearance and recording of vital signs.
The populations of interest were defined as follows: • The randomized population included all subjects who were randomized into the study. • The safety population included all randomized subjects who receive at least one dose of study drug and have at least one safety assessment. • The pharmacokinetic (PK) population included all subjects who provided blood sample for analysis of E5501. A subject was included in this population if the subject had at least one blood draw for PK assessment. • The full analysis set (FAS) included all subjects who provided adequate data to derive at least one efficacy assessment. […] The day 28 visit window was defined to be from day 25, to last dose day+1, inclusively; • Other major protocol violations that impacted the platelet endpoint evaluation. Results from Planned Analyses
Subject Disposition. Sixty four subjects were randomly assigned to treatment in this study. All treated subjects provided adequate efficacy data and therefore were included in the FAS population. The number and percentage of subjects who completed treatment or discontinued prematurely were summarized by treatment groups as shown in Table 1. In addition, the number and percentage of subjects who withdrew were summarized by reason for discontinuation by treatment group. The majority (>85%) of subjects completed the study across all dose groups for the FAS, randomized, and safety populations. Seven subjects who discontinued the study early all were from E5501 dose groups: two subjects in each of 2.5, 10 and 20 mg dose groups and one subject in the 5 mg dose group.

O=C(Nc1nc(-c2cc(Cl)cs2)c(N2CCN(C3CCCCC3)CC2)s1)c1cnc(N2CCC(C(=O)O)CC2)c(Cl)c1 [E5501, 1-(3-chloro-5-{[4-(4-chlorothiophen-2-yl)-5-(4-cyclohexylpiperazin-1-yl)thiazol-2-yl]carbamoyl}pyridine-2-yl)piperidine-4-carboxylic acid]
Diarrhoea (TEAE, Total E5501): 5 (8.5) n (%)
Ecchymosis (TEAE, Total E5501): 3 (5.1) n (%)
Epistaxis (TEAE, Total E5501): 9 (15.3) n (%)
Fatigue (TEAE, Total E5501): 12 (20.3) n (%)
Headache (TEAE, Total E5501): 12 (20.3) n (%)
Migraine (TEAE, Total E5501): 2 (3.4) n (%)
Nausea (TEAE, Total E5501): 3 (5.1) n (%)
Pain in extremity (TEAE, Total E5501): 3 (5.1) n (%)
Petechiae (TEAE, Total E5501): 2 (3.4) n (%)
Platelet count increased (TEAE, Total E5501): 4 (6.8) n (%)
Upper respiratory tract infection (TEAE, Total E5501): 3 (5.1) n (%)
Vomiting (TEAE, Total E5501): 4 (6.8) n (%)
Death (Total E5501): 0 n (%)
Serious TEAEs (Any Serious TEAE) (Total E5501): 3 (5.1) n (%)
TEAE Leading to Study Treatment Dose Interruption (Total E5501): 3 (5.1) n (%)
TEAE Leading to Study Treatment Withdrawal (Total E5501): 4 (6.8) n (%)
TEAEs (Total E5501): 50 (84.7) n (%)
Treatment-Related Serious TEAEs (Total E5501): 1 (1.7) n (%)
Treatment-Related TEAEs (Total E5501): 35 (59.3) n (%)
TEAE leading to study treatment interruption (all E5501): 3 cases
TEAE leading to withdrawal of study treatment (all E5501): 4 cases
subjects with a TEAE leading to study drug withdrawal (all E5501): 6.8%
Epistaxis (all E5501-treated subjects): 15.3%
Fatigue (all E5501-treated subjects): 20.3%
Headache (all E5501-treated subjects): 20.3%
subjects who experienced a treatment emergent adverse event (TEAE) (all E5501-treated subjects): 84.7%
subjects with TEAE possibly or probably related to E5501 (all E5501-treated subjects): 59.3%
subjects who withdrew due to an AE (one for each of the 5 and 10 mg dose groups): two
number of serious TEAEs (overall): 6
Discontinued study, primary reason Adverse Event or SAE (2.5 mg): 0 n (%)
Discontinued study, primary reason Platelet Count Increase to ≧500 K/mm^3 (2.5 mg): 0 n (%)
Discontinued study, primary reason Adverse Event or SAE (5 mg): 1 (6.7) n (%)
Discontinued study, primary reason Platelet Count Increase to ≧500 K/mm^3 (5 mg): 0 n (%)
Discontinued study, primary reason Adverse Event or SAE (10 mg): 1 (7.1) n (%)
Discontinued study, primary reason Platelet Count Increase to ≧500 K/mm^3 (10 mg): 0 n (%)
Discontinued study, primary reason Adverse Event or SAE (20 mg): 0 n (%)
Discontinued study, primary reason Platelet Count Increase to ≧500 K/mm^3 (20 mg): 2 (13.3) n (%)
Discontinued study, primary reason Adverse Event or SAE (Total E5501): 2 (3.4) n (%)
Discontinued study, primary reason Platelet Count Increase to ≧500 K/mm^3 (Total E5501): 2 (3.4) n (%)
Blood and lymphatic system disorders (2.5 mg): 1 (6.7) n (%)
Cardiac disorders (2.5 mg): 0 n (%)
Eye disorders (2.5 mg): 0 n (%)
Gastritis haemorrhagic (2.5 mg): 1 (6.7) n (%)
Gastrointestinal disorders (2.5 mg): 1 (6.7) n (%)
Infections and infestations (2.5 mg): 0 n (%)
Myocardial infarction (2.5 mg): 0 n (%)
Nervous system disorders (2.5 mg): 0 n (%)
Pneumonia (2.5 mg): 0 n (%)
Retinal artery occlusion (2.5 mg): 0 n (%)
Thrombocytopenia (2.5 mg): 1 (6.7) n (%)
Transient ischaemic attack (2.5 mg): 0 n (%)
Blood and lymphatic system disorders (5 mg): 0 n (%)
Cardiac disorders (5 mg): 0 n (%)
Eye disorders (5 mg): 0 n (%)
Gastritis haemorrhagic (5 mg): 0 n (%)
Gastrointestinal disorders (5 mg): 0 n (%)
Infections and infestations (5 mg): 0 n (%)
Myocardial infarction (5 mg): 0 n (%)
Nervous system disorders (5 mg): 0 n (%)
Pneumonia (5 mg): 0 n (%)
Retinal artery occlusion (5 mg): 0 n (%)
Thrombocytopenia (5 mg): 0 n (%)
Transient ischaemic attack (5 mg): 0 n (%)
Blood and lymphatic system disorders (10 mg): 0 n (%)
Cardiac disorders (10 mg): 1 (7.1) n (%)
Eye disorders (10 mg): 1 (7.1) n (%)
Gastritis haemorrhagic (10 mg): 0 n (%)
Gastrointestinal disorders (10 mg): 0 n (%)
Infections and infestations (10 mg): 1 (7.1) n (%)
Myocardial infarction (10 mg): 1 (7.1) n (%)
Nervous system disorders (10 mg): 1 (7.1) n (%)
Pneumonia (10 mg): 1 (7.1) n (%)
Retinal artery occlusion (10 mg): 1 (7.1) n (%)
Thrombocytopenia (10 mg): 0 n (%)
Transient ischaemic attack (10 mg): 1 (7.1) n (%)
Blood and lymphatic system disorders (20 mg): 0 n (%)
Cardiac disorders (20 mg): 0 n (%)
Eye disorders (20 mg): 0 n (%)
Gastritis haemorrhagic (20 mg): 0 n (%)
Gastrointestinal disorders (20 mg): 0 n (%)
Infections and infestations (20 mg): 0 n (%)
Myocardial infarction (20 mg): 0 n (%)
Nervous system disorders (20 mg): 0 n (%)
Pneumonia (20 mg): 0 n (%)
Retinal artery occlusion (20 mg): 0 n (%)
Thrombocytopenia (20 mg): 0 n (%)
Transient ischaemic attack (20 mg): 0 n (%)
Blood and lymphatic system disorders (Total E5501): 1 (1.7) n (%)
Cardiac disorders (Total E5501): 1 (1.7) n (%)
Eye disorders (Total E5501): 1 (1.7) n (%)
Gastritis haemorrhagic (Total E5501): 1 (1.7) n (%)
Gastrointestinal disorders (Total E5501): 1 (1.7) n (%)
Infections and infestations (Total E5501): 1 (1.7) n (%)
Myocardial infarction (Total E5501): 1 (1.7) n (%)
Nervous system disorders (Total E5501): 1 (1.7) n (%)
Pneumonia (Total E5501): 1 (1.7) n (%)
Retinal artery occlusion (Total E5501): 1 (1.7) n (%)
Thrombocytopenia (Total E5501): 1 (1.7) n (%)
Transient ischaemic attack (Total E5501): 1 (1.7) n (%)
